Data reported in EP4470536A1, “COMPOUND FOR USE IN TREATING FIBRODYSPLASIA OSSIFICANS PROGRESSIVA (FOP)” (Queen's University At Kingston, priority 2023, dated 2024).

What was measured:
[1] = Mapping a therapeutic window (ED50 versus MTD); assay type: in vivo; settings: QD, own data compiled with mined literature data
Excerpt: For both palovarotene and compound 1 efficacy and toxicity were correlated to the pharmacokinetic parameters AUC (area under the curve), Cmax (maximum concentration detected following compound administration), and duration above EC50/IC50.This illustrated that efficacy was best predicted by duration above the EC50/IC50 (effective concentration for 50% response (in the case of palovarotene), or for 50% inhibition (in the case of compound 1)), whereas toxicity was best predicted by Cmax. […] For palovarotene, efficacy data from Example 7 and toxicity data from Example 8 above were compiled with mined data from the following publications: • Lindborg et al (2018). "Cartilage-derived retinoic acid-sensitive protein (CD-RAP): A stage-specific biomarker of heterotopic endochondral ossification (HEO) in fibrodysplasia ossificans progressiva (FOP)." Bone 109: 153-157. • Chakkalakal, S. A., et al. (2016). "Palovarotene Inhibits Heterotopic Ossification and Maintains Limb Mobility and Growth in Mice With the Human ACVR1(R206H) Fibrodysplasia Ossificans Progressiva (FOP) Mutation." J Bone Miner Res 31(9): 1666-1675. • Inubushi, T., et al. (2018). "Palovarotene Inhibits Osteochondroma Formation in a Mouse Model of Multiple Hereditary Exostoses." J Bone Miner Res 33(4): 658-666. • Lees-Shepard, J. B., et al. (2018). […] "Potent inhibition of heterotopic ossification by nuclear retinoic acid receptor-gamma agonists." Nat Med 17(4): 454-460.

[2] = tested on: ectopic bone formation; assay: Surgical mouse model of heterotopic ossification (rhBMP2-soaked collagen disk), micro-CT; assay type: in vivo, CD-1 mouse; settings: Day 14
Procedure: Heterotopic ossification (HO) driven by Bone Morphogenetic Protein (BMP) signaling has been used as a surrogate model for testing the effectiveness of drugs for treating Fibrodysplasia Ossificans Progressiva (FOP) (see, for example, Shimono K., et al. (2011). Nat Med 17, 454-460.). Collagen disks of 1mm in diameter were punched from a thin collagen foam matrix (Avitene™ Ultrafoam™ Collagen Hemostat product #1050050 lot #WBDP0038, from BD, Franklin Lakes, NJ, USA). Disks were impregnated with 1µg total of recombinant human BMP-2 (GenScript, Piscataway, NJ, USA, catalog #Z02913, lot #P50031712) on the day of surgery (5µl of 200ng/µL BMP-2, reconstituted in 20mM acetic acid solution). The rhBMP2-soaked collagen disk was surgically implanted into a small pocket made in the left gastrocnemius muscle of a 6-8 week-old male CD-1 mouse. Beginning on the day following surgery, mice were administered varying doses of compound 1 by oral gavage once daily (QD) or twice daily (every 12h; BID) for 13 days. Doses administered were: vehicle (Corn oil, QD (5M) and BID (3M) dosing or 3% DMSO in Corn oil (2M)), compound 1 18 mg/kg BID, 18 mg/kg QD, 6 mg/kg BID, 4.5 mg/kg BID, and 2 mg/kg BID (6M per group). Palovarotene high and low doses were used as comparators (1.76 mg/kg (4M) and 0.88 mg/kg QD (6M)). The palovarotene high and low doses were selected based on a study for palovarotene (Inubushi, T., et al. (2018). "Palovarotene Inhibits Osteochondroma Formation in a Mouse Model of Multiple Hereditary Exostoses." J Bone Miner Res 33(4): 658-666.), using oral treatment of mice. The inventors also verified the dose selection based on pharmacokinetic (PK) data generated in-house for palovarotene IP (intraperitoneal) and PO (oral) treatment by using the doses for IP treatment from Lees-Shepard, J. B., et al. (2018).
At the study endpoint (Day 14: 16-30 hours after final compound treatment) left hindlimbs were removed and submitted to micro-CT (micro-computed tomography) imaging. Using this preclinical surgical model, the amount of resulting ectopic bone formation after 14 days was visualized for each of the treatment groups (Figure 6). The highly enhancing regions seen within the gastrocnemius muscle corresponded to the amount of ectopic bone formation generated at the site of collagen disk implantation, following 14 days of vehicle or drug treatment.
The hindlimbs obtained in Example 6 above were submitted to micro-CT imaging. CT images were acquired using a VECTor^4CT pre-clinical scanner (MILabs B.V., Utrecht, Netherlands) equipped with a cone beam X-ray CT system. Scans were carried out with an acceleration voltage of 50 kVp and an X-ray tube current of 430 µA in accurate focus mode to obtain 3600 projections over a 360° scan. With a 40 ms exposure time per step, the total scan procedure took about 5 minutes with an estimated radiation dose of 3077 mGy. CT images were consequently processed using MILabs reconstruction software implementing a voxel size of 20 µm and a Hann projection filter of 25 µm to generate 3-dimensional CT images. For quantification, CT images were converted to DICOM® files using PMOD 3.9 software (PMOD Technologies Ltd., Zurich, Switzerland) for rendering using RadiAnt DICOM Viewer 4.2 software (Medixant, Poznań, Poland). The region-of-interest for all hindlimbs, reconstructed from DICOM files, was defined by outlining sites of ectopic ossification. Analysis of total ectopic bone volume was conducted via automated processes using the AnalyzePro software with the Bone Microarchitecture Analysis (BMA) add-on (AnalyzeDirect, Overland Park, Kansas). This software generates bone volume measurements from the defined area, as described by Bouxsein et al (2010). Journal of Bone and Mineral Research, 25(7), 1468-1486. Using this preclinical surgical model, the ability of compound 1 to inhibit HO (percentage from vehicle), as compared to palovarotene, was assessed and is shown in Figure 7 and in Table 1 below.

## CC1(C)CCC(C)(C)c2cc(Cn3cccn3)c(/C=C/c3ccc(C(=O)O)cc3)cc21 [Palovarotene, palovarotene, reference compound]
[1]; Mus musculus
  ED50: 0.3 mg/kg
[1]; mouse, in vivo
  MTD: 0.285 mg/kg
[2]; 0.88mg/kg
  Mean bone volume (mm^3): 1.985 mm^3
  percent change in HO volume from vehicle mean (%): +2.5%
[2]; 1.76mg/kg QD
  Mean bone volume (mm^3): 0.615 mm^3
  percent change in HO volume from vehicle mean (%): -68.2%
